The conditions of series [1]: 4 °C.
The conditions of series [2]: human.
For series [3] the following is noted: human, in vivo.
The conditions of series [4]: human. The source holds these as a separate data set.

In the case of `O=C(NN1C(=O)[C@@H]2[C@@H]3C=C[C@@H]([C@H]4C[C@@H]34)[C@@H]2C1=O)c1ccc(C(F)(F)F)cc1` [ST-246, tecovirimat], the “time of stability in autosampler” value in series [1] is 48 h. In addition, the “% of nominal concentrations after three consecutive freeze-thaw cycles” value in series [2] is listed as 96–115%. In series [3] (po), the “maximal ST-246 concentration in real-world plasma samples” value is at most 1000 ng/mL. Moreover, in series [4], the “time of stability at −20 °C” value is given as at least 90 days and the “time without degradation at −20 °C” value is listed as “at least 3 months”.

On to `O=C(NNC(=O)C1C2C=CC(C3CC23)C1C(=O)O)c1ccc(C(F)(F)F)cc1` (stereo not shown) [NIOCH-14], for which, in series [3], the “half-life compared with ST-246” value is listed as “longer” and the “maximum concentration in plasma compared with ST-246” value was “lower”. Also, the “dose of ST-246 equivalent to 600 mg of NIOCH-14 according to the area under the curve” value in series [3] (po) is around 250 mg. In series [3] (po, 600 mg), this molecule had an AUCo-inf of 8864 ± 4117 and a Cl/F of 80 ± 37 L/h.
